Source: patent US9745291B2, “PRMT5 inhibitors containing a dihydro- or tetrahydroisoquinoline and uses thereof” (Epizyme, Inc., priority 2012, dated 2017)

What follows are molecules tested against PRMT5/MEP50 (Homo sapiens (Human), UniProt O14744) (assay: PRMT5 Biochemical Assay (PRMT5/MEP50 enzyme assay on peptide substrate, 3H-SAM Flashplate)). Conditions: PRMT5 biochemical assay; read-out: Biochemical IC50.
Excerpt: S-adenosylmethionine (SAM), S-adenosylhomocysteine (SAH), bicine, KCl, Tween20, dimethylsulfoxide (DMSO), bovine skin gelatin (BSG), and Tris(2-carboxyethyl)phosphine hydrochloride solution (TCEP) were purchased from Sigma-Aldrich at the highest level of purity possible. ^3H-SAM was purchase from American Radiolabeled Chemicals with a specific activity of 80 Ci/mmol. 384-well streptavidin Flashplates were purchased from PerkinElmer.
Peptide representative of human histone H4 residues 1-15 was synthesized with a C-terminal linker-affinity tag motif and a C-terminal amide cap by 21st Century Biochemicals. […] The sequence was Ac-[…][K-Biot]-amide (SEQ ID NO.:3).
Full-length human MEP50 (NM_024102) clone was amplified from a human testis cDNA library incorporating a 5′ sequence encoding a 6-histidine tag (MHHHHHH)(SEQ ID NO.:5) fused directly to Arg 2 of MEP50. The amplified genes were sublconed into pENTR/D/TEV (Life Technologies) and subsequently transferred by Gateway™ attL×attR recombination to pDEST8 baculvirus expression vector (Life Technologies).
Recombinant baculovirus and Baculovirus-Infected Insect Cells (BIIC) were generated according to Bac-to-Bac kit instructions (Life Technologies) and Wasilko, 2006, respectively. Protein over-expression was accomplished by infecting exponentially growing Spodoptera frugiperda (SF9) cell culture at 1.2×10^6 cell/ml with a 5000 fold dilution of BIIC stock. Infections were carried out at 27° C. for 72 hours, harvested by centrifugation, and stored at −80° C. for purification.
Flag-PRMT5/6His-MeP50 was eluted with 300 mM Imidazole in the same buffer. […] Reference: Wasilko, D. J. and S. E. Lee: “TIPS: titerless infected-cells preservation and scale-up” Bioprocess J., 5 (2006), pp. 29-32.
General Procedure for PRMT5/MEP50 Enzyme Assays on Peptide Substrates.
The assays were all performed in a buffer consisting of 20 mM Bicine (pH=7.6), 1 mM TCEP, 0.005% BSG, and 0.002% Tween20, prepared on the day of use. Compounds in 100% DMSO (1 ul) were spotted into a polypropylene 384-well V-bottom plates (Greiner) using a Platemate Plus outfitted with a 384-channel head (Thermo Scientific). DMSO (1 ul) was added to Columns 11, 12, 23, 24, rows A-H for the maximum signal control and 1 ul of SAH, a known product and inhibitor of PRMT5/MEP50, was added to columns 11, 12, 23, 24, rows I-P for the minimum signal control. A cocktail (40 ul) containing the PRMT5/MEP50 enzyme and the peptide was added by Multidrop Combi (Thermo-Fisher). The compounds were allowed to incubate with PRMT5/MEP50 for 30 min at 25 degrees Celsius, then a cocktail (10 ul) containing ^3H-SAM was added to initiate the reaction (final volume=51 ul).

Sequence of PRMT5/MEP50 (O14744 other isoform, or with tags, fused parts or gaps): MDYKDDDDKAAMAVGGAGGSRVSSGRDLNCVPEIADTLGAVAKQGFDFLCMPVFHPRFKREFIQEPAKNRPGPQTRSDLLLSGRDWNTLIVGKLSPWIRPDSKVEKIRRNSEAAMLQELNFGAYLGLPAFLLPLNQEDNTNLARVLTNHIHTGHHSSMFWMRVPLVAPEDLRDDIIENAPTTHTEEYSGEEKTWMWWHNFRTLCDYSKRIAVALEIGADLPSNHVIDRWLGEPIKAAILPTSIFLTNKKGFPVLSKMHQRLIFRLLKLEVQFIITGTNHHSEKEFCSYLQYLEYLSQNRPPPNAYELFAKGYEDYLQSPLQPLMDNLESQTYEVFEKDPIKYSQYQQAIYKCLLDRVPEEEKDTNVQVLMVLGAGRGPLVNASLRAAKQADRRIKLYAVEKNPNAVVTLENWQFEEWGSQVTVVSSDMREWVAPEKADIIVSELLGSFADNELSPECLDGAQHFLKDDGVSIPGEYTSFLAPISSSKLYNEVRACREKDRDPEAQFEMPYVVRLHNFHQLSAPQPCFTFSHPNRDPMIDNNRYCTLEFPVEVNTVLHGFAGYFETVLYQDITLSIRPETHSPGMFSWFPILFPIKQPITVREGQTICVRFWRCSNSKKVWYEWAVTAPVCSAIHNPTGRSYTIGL
Sequence of PRMT5/MEP50 (Q9BQA1 other isoform, or with tags, fused parts or gaps partner): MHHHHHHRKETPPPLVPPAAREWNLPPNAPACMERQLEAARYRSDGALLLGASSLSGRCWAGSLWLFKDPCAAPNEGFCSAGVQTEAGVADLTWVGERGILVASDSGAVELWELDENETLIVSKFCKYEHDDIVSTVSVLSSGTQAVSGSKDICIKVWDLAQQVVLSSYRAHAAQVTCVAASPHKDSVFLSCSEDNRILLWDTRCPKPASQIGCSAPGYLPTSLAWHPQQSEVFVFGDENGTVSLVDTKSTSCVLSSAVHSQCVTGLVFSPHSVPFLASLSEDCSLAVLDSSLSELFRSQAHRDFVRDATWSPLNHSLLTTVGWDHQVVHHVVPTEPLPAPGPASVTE

**Q.** With `O=C(COc1cccc2c1CCCN2Cc1ccccc1)NCC(O)CN1CCc2ccccc2C1` (centres unmarked) [Compound 4] as the molecule, how does the IC50 read?
**A.** < 100 nM

**Q.** With `CC(Oc1ccccc1)C(=O)NCC(O)CN1CCc2ccccc2C1` (centres unmarked) [Compound 19, N-(3-(3,4-dihydroisoquinolin-2(1H)-yl)-2-hydroxypropyl)-2-phenoxypropanamide] as the molecule, how does the IC50 read?
**A.** < 100 nM

**Q.** With `COc1cccc(OCC(=O)NCC(O)CN2CCc3ccccc3C2)c1` (centres unmarked) [Compound 20, N-(3-(3,4-dihydroisoquinolin-2(1H)-yl)-2-hydroxypropyl)-2-(3-methoxyphenoxy)acetamide] as the molecule, how does the IC50 read?
**A.** < 100 nM

**Q.** How did the IC50 turn out when `COc1ccccc1OCC(=O)NCC(O)CN1CCc2ccccc2C1` (centres unmarked) [Compound 22] was run?
**A.** < 100 nM

**Q.** `Cn1ncc2ccc(OCC(=O)NCC(O)CN3CCc4ccccc4C3)cc21` (centres unmarked) [Compound 23, N-(3-(3,4-dihydroisoquinolin-2(1H)-yl)-2-hydroxypropyl)-2-((1-methyl-1H-indazol-6-yl)oxy)acetamide] was tested. Which IC50 did it give?
**A.** < 100 nM

**Q.** Which IC50 does the source give for `Cc1cccc(OCC(=O)NCC(O)CN2CCc3ccccc3C2)c1` (centres unmarked) [Compound 26] here?
**A.** < 100 nM

**Q.** For `CN(C)c1cccc(OCC(=O)NCC(O)CN2CCc3ccccc3C2)c1` (centres unmarked) [Compound 27], which IC50 is on record?
**A.** < 100 nM

**Q.** How did the IC50 turn out when `CS(=O)(=O)Nc1cccc(OCC(=O)NCC(O)CN2CCc3ccccc3C2)c1` (centres unmarked) [Compound 28, N-(3-(3,4-dihydroisoquinolin-2(1H)-yl)-2-hydroxypropyl)-2-(3-(methylsulfonamido)phenoxy)acetamide] was run?
**A.** < 100 nM

**Q.** With `CS(=O)(=O)c1ccccc1OCC(=O)NCC(O)CN1CCc2ccccc2C1` (centres unmarked) [Compound 37, N-(3-(3,4-dihydroisoquinolin-2(1H)-yl)-2-hydroxypropyl)-2-(2-(methylsulfonyl)phenoxy)acetamide] as the molecule, how does the IC50 read?
**A.** < 100 nM

**Q.** With `CN(C)c1ccccc1OCC(=O)NCC(O)CN1CCc2ccccc2C1` (centres unmarked) [Compound 38] as the molecule, how does the IC50 read?
**A.** < 100 nM

**Q.** With `CC(Oc1cccc2cccnc12)C(=O)NCC(O)CN1CCc2ccccc2C1` (centres unmarked) [Compound 39, N-(3-(3,4-dihydroisoquinolin-2(1H)-yl)-2-hydroxypropyl)-2-(quinolin-8-yloxy)propanamide] as the molecule, how does the IC50 read?
**A.** < 100 nM

**Q.** With `O=C(COc1ccccc1C1CCCCC1)NCC(O)CN1CCc2ccccc2C1` (centres unmarked) [Compound 40] as the molecule, how does the IC50 read?
**A.** < 100 nM

**Q.** How did the IC50 turn out when `CC(C)(Oc1cccc2cccnc12)C(=O)NCC(O)CN1CCc2ccccc2C1` (centres unmarked) [Compound 43, N-(3-(3,4-dihydroisoquinolin-2(1H)-yl)-2-hydroxypropyl)-2-methyl-2-(quinolin-8-yloxy)propanamide] was run?
**A.** < 100 nM

**Q.** `CS(=O)(=O)c1cccc(OCC(=O)NCC(O)CN2CCc3ccccc3C2)c1` (centres unmarked) [Compound 47] was tested. Which IC50 did it give?
**A.** < 100 nM

**Q.** Which IC50 does the source give for `O=C(COc1cccc2ccc(N3CCOCC3)nc12)NCC(O)CN1CCc2ccccc2C1` (centres unmarked) [Compound 48, N-(3-(3,4-dihydroisoquinolin-2(1H)-yl)-2-hydroxypropyl)-2-((2-morpholinoquinolin-8-yl)oxy)acetamide] here?
**A.** < 100 nM

**Q.** Which IC50 does the source give for `O=C(COc1ccccc1N1CCOCC1)NCC(O)CN1CCc2ccccc2C1` (centres unmarked) [Compound 49, N-(3-(3,4-dihydroisoquinolin-2(1H)-yl)-2-hydroxypropyl)-2-(2-morpholinophenoxy)acetamide] here?
**A.** < 100 nM

**Q.** For `O=C(COc1ccccc1-c1cc[nH]n1)NCC(O)CN1CCc2ccccc2C1` (centres unmarked) [Compound 50, 2-(2-(1H-pyrazol-3-yl)phenoxy)-N-(3-(3,4-dihydroisoquinolin-2(1H)-yl)-2-hydroxypropyl)acetamide], which IC50 is on record?
**A.** < 100 nM

**Q.** For `CS(=O)(=O)Nc1ccccc1OCC(=O)NCC(O)CN1CCc2ccccc2C1` (centres unmarked) [Compound 53], which IC50 is on record?
**A.** < 100 nM

**Q.** `O=C(COc1cccc2c1CCCC2)NCC(O)CN1CCc2ccccc2C1` (centres unmarked) [Compound 64] was tested. Which IC50 did it give?
**A.** < 100 nM

**Q.** For `NS(=O)(=O)c1ccccc1OCC(=O)NCC(O)CN1CCc2ccccc2C1` (centres unmarked) [Compound 65], which IC50 is on record?
**A.** < 100 nM

**Q.** `O=C(COc1cccc2ccccc12)NCC(O)CN1CCc2ccccc2C1` (centres unmarked) [Compound 66, N-(3-(3,4-dihydroisoquinolin-2(1H)-yl)-2-hydroxypropyl)-2-(naphthalen-1-yloxy)acetamide] was tested. Which IC50 did it give?
**A.** < 100 nM

**Q.** How did the IC50 turn out when `O=C(COc1ccccc1-c1cc[nH]n1)NC[C@@H](O)CN1CCc2ccccc2C1` [Compound 67] was run?
**A.** < 100 nM

**Q.** For `O=C(COc1ccccc1-c1cc[nH]n1)NC[C@H](O)CN1CCc2ccccc2C1` [Compound 68], which IC50 is on record?
**A.** < 100 nM

**Q.** How did the IC50 turn out when `C[C@@H](Oc1cccc2cccnc12)C(=O)NC[C@H](O)CN1CCc2ccccc2C1` [Compound 73, (R)—N—((S)-3-(3,4-dihydroisoquinolin-2(1H)-yl)-2-hydroxypropyl)-2-(quinolin-8-yloxy)propanamide] was run?
**A.** < 100 nM

**Q.** Which IC50 does the source give for `C[C@@H](Oc1cccc2cccnc12)C(=O)NC[C@@H](O)CN1CCc2ccccc2C1` [Compound 74] here?
**A.** < 100 nM

**Q.** Which IC50 does the source give for `O=C(COc1cccc(CN2CCOCC2)c1)NCC(O)CN1CCc2ccccc2C1` (centres unmarked) [Compound 75] here?
**A.** < 100 nM

**Q.** With `C[C@H](Oc1cccc2cccnc12)C(=O)NC[C@H](O)CN1CCc2ccccc2C1` [Compound 76, (S)—N—((S)-3-(3,4-dihydroisoquinolin-2(1H)-yl)-2-hydroxypropyl)-2-(quinolin-8-yloxy)propanamide] as the molecule, how does the IC50 read?
**A.** < 100 nM

**Q.** `O=C(COc1ccccc1N1CCOCC1)NC[C@H](O)CN1CCc2ccccc2C1` [Compound 77] was tested. Which IC50 did it give?
**A.** < 100 nM

**Q.** Which IC50 does the source give for `CN1C(=O)COc2cccc(OCC(=O)NCC(O)CN3CCc4ccccc4C3)c21` (centres unmarked) [Compound 80, N-(3-(3,4-Dihydroisoquinolin-2(1H)-yl)-2-hydroxypropyl)-2-(4-methyl-3-oxo-3,4-dihydro-2H-benzo[b][1,4]oxazin-5-yloxy)acetamide] here?
**A.** < 100 nM

**Q.** For `CN1CCOc2cccc(OCC(=O)NCC(O)CN3CCc4ccccc4C3)c21` (centres unmarked) [Compound 81], which IC50 is on record?
**A.** < 100 nM

**Q.** `Cn1ncc2c(OCC(=O)NCC(O)CN3CCc4ccccc4C3)cccc21` (centres unmarked) [Compound 82] was tested. Which IC50 did it give?
**A.** < 100 nM

**Q.** For `CN1CCN(c2ccccc2OCC(=O)NC[C@H](O)CN2CCc3ccccc3C2)CC1` [Compound 84], which IC50 is on record?
**A.** < 100 nM

**Q.** Which IC50 does the source give for `O=C(COc1ccccc1OCCN1CCOCC1)NC[C@H](O)CN1CCc2ccccc2C1` [Compound 86] here?
**A.** < 100 nM

**Q.** With `CN(C)CCOc1ccccc1OCC(=O)NC[C@H](O)CN1CCc2ccccc2C1` [Compound 88] as the molecule, how does the IC50 read?
**A.** < 100 nM

**Q.** For `CC(=O)N1CCN(c2ccccc2OCC(=O)NCC(O)CN2CCc3ccccc3C2)CC1` (centres unmarked) [Compound 90], which IC50 is on record?
**A.** < 100 nM

**Q.** For `O=C(COc1cccc2c1CCNC2)NCC(O)CN1CCc2ccccc2C1` (centres unmarked) [Compound 91], which IC50 is on record?
**A.** < 100 nM

**Q.** Which IC50 does the source give for `O=C(COc1cccc2nccnc12)NCC(O)CN1CCc2ccccc2C1` (centres unmarked) [Compound 92] here?
**A.** < 100 nM

**Q.** `O=C(COc1cccc(NC2CCOCC2)c1)NCC(O)CN1CCc2ccccc2C1` (centres unmarked) [Compound 93] was tested. Which IC50 did it give?
**A.** < 100 nM

**Q.** How did the IC50 turn out when `O=C(COc1c(CN2CCOCC2)ccc2cccnc12)NC[C@H](O)CN1CCc2ccccc2C1` [Compound 94] was run?
**A.** < 100 nM

**Q.** Which IC50 does the source give for `O=C(COc1ccc2c(cnn2C2CCNC2)c1)NCC(O)CN1CCc2ccccc2C1` (centres unmarked) [Compound 95] here?
**A.** < 100 nM

**Q.** Which IC50 does the source give for `CN1CCC(n2ncc3cc(OCC(=O)NCC(O)CN4CCc5ccccc5C4)ccc32)C1` (centres unmarked) [Compound 96] here?
**A.** < 100 nM

**Q.** Which IC50 does the source give for `COc1ccc2cccc(OCC(=O)NC[C@@H](O)CN3CCc4ccccc4C3)c2n1` [Compound 98, (R)—N-(3-(3,4-dihydroisoquinolin-2(1H)-yl)-2-hydroxypropyl)-2-((2-methoxyquinolin-8-yl)oxy)acetamide] here?
**A.** < 100 nM

**Q.** How did the IC50 turn out when `CN1CCc2c(cccc2OCC(=O)NCC(O)CN2CCc3ccccc3C2)C1` (centres unmarked) [Compound 99] was run?
**A.** < 100 nM

**Q.** Which IC50 does the source give for `O=C(COc1cccc2c1OCCO2)NCC(O)CN1CCc2ccccc2C1` (centres unmarked) [Compound 100] here?
**A.** < 100 nM

**Q.** For `CC(=O)N1CCc2c(cccc2OCC(=O)NCC(O)CN2CCc3ccccc3C2)C1` (centres unmarked) [Compound 101], which IC50 is on record?
**A.** < 100 nM

**Q.** With `CS(=O)(=O)N1CCc2c(cccc2OCC(=O)NCC(O)CN2CCc3ccccc3C2)C1` (centres unmarked) [Compound 102, N-(3-(3,4-dihydroisoquinolin-2(1H)-yl)-2-hydroxypropyl)-2-((2-(methylsulfonyl)-1,2,3,4-tetrahydroisoquinolin-5-yl)oxy)acetamide] as the molecule, how does the IC50 read?
**A.** < 100 nM

**Q.** How did the IC50 turn out when `O=C(COc1ccccc1C1CCNCC1)NCC(O)CN1CCc2ccccc2C1` (centres unmarked) [Compound 103] was run?
**A.** < 100 nM

**Q.** Which IC50 does the source give for `CN(C)c1ccc2cccc(OCC(=O)NC[C@@H](O)CN3CCc4ccccc4C3)c2n1` [Compound 105] here?
**A.** < 100 nM

**Q.** With `O=C(COc1ccccc1S(=O)(=O)N1CCNCC1)NCC(O)CN1CCc2ccccc2C1` (centres unmarked) [Compound 107] as the molecule, how does the IC50 read?
**A.** < 100 nM

**Q.** For `CN1CCN(S(=O)(=O)c2ccccc2OCC(=O)NCC(O)CN2CCc3ccccc3C2)CC1` (centres unmarked) [Compound 108], which IC50 is on record?
**A.** < 100 nM
